According to ChEMBL document CHEMBL1152864, “Synthesis and anti-inflammatory activity of newer quinazolin-4-one derivatives” (Eur J Med Chem, 2009):

What was measured:
Rattus norvegicus [1] = experiment: Antiinflammatory activity in Charles-Foster albino rat assessed as inhibition of carrageenan-induced hind paw edema at 50 mg/kg, po relative to control; assay type: functional
[2] = Acute toxicity in po dosed albino mouse; assay type: organism-based; conditions: in vivo, read-out: ALD50
Rattus norvegicus [3] = experiment: Antiinflammatory activity in Charles-Foster albino rat assessed as inhibition of carrageenan-induced hind paw edema at 100 mg/kg, po relative to control; assay type: functional
Rattus norvegicus [4] = experiment: Antiinflammatory activity in Charles-Foster albino rat assessed as inhibition of carrageenan-induced hind paw edema at 25 mg/kg, po relative to control; assay type: functional

| Compound | inhibition in vivo at 50 mg/kg (Rattus norvegicus [1]) | LD50 [2] | inhibition in vivo at 100 mg/kg (Rattus norvegicus [3]) | inhibition in vivo at 25 mg/kg (Rattus norvegicus [4]) |
| --- | --- | --- | --- | --- |
| COc1ccc(C2SCC(=O)N2n2c(CSc3nnc(-c4ccncc4)o3)nc3ccc(Br)cc3c2=O)cc1 (stereo not drawn) | 35.3% | > 1000 mg/kg |  |  |
| O=C1CSC(c2ccc(O)cc2)N1n1c(CSc2nnc(-c3ccncc3)o2)nc2ccc(Br)cc2c1=O (stereo not drawn) | 32.7% | > 1000 mg/kg |  |  |
| O=C1C(Cl)C(c2ccc(Cl)cc2)N1n1c(CSc2nnc(-c3ccncc3)o2)nc2ccc(Br)cc2c1=O (stereo not drawn) | 29.9% | > 1000 mg/kg |  |  |
| COc1ccc(C2C(Cl)C(=O)N2n2c(CSc3nnc(-c4ccncc4)o3)nc3ccc(Br)cc3c2=O)cc1 (stereo not drawn) | 28.6% | > 1000 mg/kg |  |  |
| O=c1c2ccccc2nc(CSc2nnc(-c3ccncc3)o2)n1/N=C/c1ccccc1 | 16.3% | > 1000 mg/kg |  |  |
| O=c1c2ccccc2nc(CSc2nnc(-c3ccncc3)o2)n1/N=C/c1ccc(Cl)cc1 | 23.7% | > 1000 mg/kg |  |  |
| O=C1C(Cl)C(c2ccc(O)cc2)N1n1c(CSc2nnc(-c3ccncc3)o2)nc2ccccc2c1=O (stereo not drawn) | 25.7% | > 1000 mg/kg |  |  |
| O=C1CSC(c2ccc(O)cc2)N1n1c(CSc2nnc(-c3ccncc3)o2)nc2ccccc2c1=O (stereo not drawn) | 31.7% | > 1000 mg/kg |  |  |
| COc1ccc(/C=N/n2c(CSc3nnc(-c4ccncc4)o3)nc3ccc(Br)cc3c2=O)cc1 | 24.4% | > 1000 mg/kg |  |  |
| O=C1CSC(c2ccccc2)N1n1c(CSc2nnc(-c3ccncc3)o2)nc2ccc(Br)cc2c1=O (stereo not drawn) | 31.3% | > 1000 mg/kg |  |  |
| O=C1CSC(c2ccc(Cl)cc2)N1n1c(CSc2nnc(-c3ccncc3)o2)nc2ccc(Br)cc2c1=O (stereo not drawn) | 25.2% | > 1000 mg/kg | 66.9% | 25.2% |
| O=C1CSC(c2ccccc2)N1n1c(CSc2nnc(-c3ccncc3)o2)nc2ccccc2c1=O (stereo not drawn) | 30.1% | > 1000 mg/kg |  |  |
| COc1ccc(C2SCC(=O)N2n2c(CSc3nnc(-c4ccncc4)o3)nc3ccccc3c2=O)cc1 (stereo not drawn) | 33.8% | > 1000 mg/kg |  |  |
| COc1ccc(/C=N/n2c(CSc3nnc(-c4ccncc4)o3)nc3ccccc3c2=O)cc1 | 20% | > 1000 mg/kg |  |  |
| O=c1c2cc(Br)ccc2nc(CSc2nnc(-c3ccncc3)o2)n1/N=C/c1ccc(O)cc1 | 22.3% | > 1000 mg/kg |  |  |
| O=C1C(Cl)C(c2ccccc2)N1n1c(CSc2nnc(-c3ccncc3)o2)nc2ccccc2c1=O (stereo not drawn) | 25.1% | > 1000 mg/kg |  |  |
| O=C1C(Cl)C(c2ccc(Cl)cc2)N1n1c(CSc2nnc(-c3ccncc3)o2)nc2ccccc2c1=O (stereo not drawn) | 27.9% | > 1000 mg/kg |  |  |
| O=c1c2cc(Br)ccc2nc(CSc2nnc(-c3ccncc3)o2)n1/N=C/c1ccc(Cl)cc1 | 26.4% | > 1000 mg/kg |  |  |
| O=C1C(Cl)C(c2ccc(O)cc2)N1n1c(CSc2nnc(-c3ccncc3)o2)nc2ccc(Br)cc2c1=O (stereo not drawn) | 27.4% | > 1000 mg/kg |  |  |
| O=c1c2ccccc2nc(CSc2nnc(-c3ccncc3)o2)n1/N=C/c1ccc(O)cc1 | 18.2% | > 1000 mg/kg |  |  |
| O=C1CSC(c2ccc(Cl)cc2)N1n1c(CSc2nnc(-c3ccncc3)o2)nc2ccccc2c1=O (stereo not drawn) | 34.1% | > 1000 mg/kg |  |  |
| O=c1c2cc(Br)ccc2nc(CSc2nnc(-c3ccncc3)o2)n1/N=C/c1ccccc1 | 19.4% | > 1000 mg/kg |  |  |
| O=C1C(Cl)C(c2ccccc2)N1n1c(CSc2nnc(-c3ccncc3)o2)nc2ccc(Br)cc2c1=O (stereo not drawn) | 26.3% | > 1000 mg/kg |  |  |
| COc1ccc(C2C(Cl)C(=O)N2n2c(CSc3nnc(-c4ccncc4)o3)nc3ccccc3c2=O)cc1 (stereo not drawn) | 26.1% | > 1000 mg/kg |  |  |
| CCCCC1C(=O)N(c2ccccc2)N(c2ccccc2)C1=O [PHENYLBUTAZONE] | 36.8% |  | 66.4% | 25.4% |
